In PubChem BioAssay (NCI) one finds TGI data, which are given here for 7 compounds.

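Values below derive from 48-hour exposures of cells grown in 96-well plates, with endpoints linearly interpolated between the two concentrations bracketing the appropriate inhibition level. The concentration for full growth arrest is given as TGI.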 Where only a bound is given, the exact number is not on record here.

Among the test systems are SF-295 CNS; HL-60(TB) leukemia; SK-MEL-5 melanoma; SNB-75 CNS; PC-3 prostate; T-47D breast; U251 CNS; NCI-H226 lung; 786-0 renal; ACHN renal; HCC-2998 colon; DU-145 prostate.
What all share (assay): NCI-60 cell line screen, 48 h

On to `Cc1ccc2c(=O)cc(-c3ccc(C)s3)[nH]c2n1`, for which the TGI with SF-295 CNS is 2.79 µM; with HL-60(TB) leukemia, 0.607 µM; in the assay with SK-MEL-5 melanoma, 3.41 µM; with SNB-75 CNS, greater than 100 µM; in the assay with PC-3 prostate, greater than 44.9 µM; in the assay on T-47D breast, greater than 66.5 µM. In addition, the TGI with U251 CNS is greater than 55.2 µM; in the assay with NCI-H226 lung, 2.45 µM; in the assay with 786-0 renal, greater than 100 µM; in the assay on ACHN renal, greater than 69 µM; in the assay on HCC-2998 colon, 9.82 µM; in the assay with DU-145 prostate it was greater than 55.4 µM.
With `COc1cccc(C2c3cc4c(cc3OC(NNS(=O)(=O)c3ccc(C)cc3)C2C)OCO4)c1OC` (centres undefined), the TGI was greater than 100 µM with SF-295 CNS; 3.28 µM with HL-60(TB) leukemia; 19 µM with SK-MEL-5 melanoma; 60.5 µM with SNB-75 CNS; 92.4 µM in the assay with PC-3 prostate; greater than 100 µM in the assay with T-47D breast. In addition, the TGI in the assay on U251 CNS is 16.9 µM; in the assay with NCI-H226 lung, 13.1 µM; in the assay on 786-0 renal, 68.3 µM; with ACHN renal it was 9.85 µM; in the assay with HCC-2998 colon, greater than 100 µM; in the assay with DU-145 prostate, 7.61 µM.
With `CN(C)N1C(=O)S/C(=C\c2ccc([N+](=O)[O-])cc2)C1=O`, the TGI is greater than 100 µM in the assay with SF-295 CNS; greater than 100 µM in the assay on HL-60(TB) leukemia; greater than 100 µM with SK-MEL-5 melanoma; 98.7 µM in the assay on SNB-75 CNS; greater than 100 µM in the assay with PC-3 prostate; greater than 100 µM in the assay with T-47D breast. Further, the TGI in the assay with U251 CNS, in the assay with NCI-H226 lung, in the assay with 786-0 renal, with ACHN renal, in the assay with HCC-2998 colon and with DU-145 prostate was greater than 100 µM each time.
In the case of `CC(C)(Cl)C(Br)CCC(Br)(CCl)C(Cl)CBr` (centres undefined), the TGI with SF-295 CNS, with HL-60(TB) leukemia, with SK-MEL-5 melanoma, in the assay on SNB-75 CNS, in the assay with PC-3 prostate and with T-47D breast was greater than 10 µM each time. Moreover, the TGI with U251 CNS, with NCI-H226 lung, in the assay with 786-0 renal, with ACHN renal, with HCC-2998 colon and in the assay with DU-145 prostate was greater than 10 µM each time.
As to `COc1ccc2c(c1)CCCN1CCc3ccccc3C21` (centres undefined), the TGI in the assay on SF-295 CNS is 79.1 µM; in the assay with HL-60(TB) leukemia, 43.3 µM; with SK-MEL-5 melanoma, greater than 100 µM; with SNB-75 CNS, 66.1 µM; in the assay on PC-3 prostate it was greater than 100 µM; with T-47D breast, greater than 100 µM. The TGI was 95.4 µM in the assay on U251 CNS; 80 µM in the assay with NCI-H226 lung; 69.9 µM with 786-0 renal; greater than 100 µM with ACHN renal; greater than 100 µM in the assay with HCC-2998 colon; greater than 100 µM in the assay on DU-145 prostate.
On to `O=[N+]([O-])c1ccc(-n2nc3ccc4c(no[n+]4[O-])c3n2)cc1`, for which the TGI in the assay with SF-295 CNS, with HL-60(TB) leukemia, with SK-MEL-5 melanoma, in the assay with SNB-75 CNS, in the assay with PC-3 prostate and in the assay on T-47D breast was greater than 100 µM in each case. For the same compound, the TGI with U251 CNS, in the assay on NCI-H226 lung, in the assay on 786-0 renal, with ACHN renal, in the assay with HCC-2998 colon and with DU-145 prostate was greater than 100 µM each time.
Take `O=C(NNC(=S)NC1CCCCC1)C12CC3CC(CC(C3)C1)C2`: the TGI in the assay on SF-295 CNS, in the assay on HL-60(TB) leukemia, in the assay with SK-MEL-5 melanoma, with SNB-75 CNS, in the assay on PC-3 prostate and in the assay on T-47D breast was greater than 100 µM in each case. Also, the TGI in the assay with U251 CNS, in the assay with NCI-H226 lung, in the assay on 786-0 renal, in the assay on ACHN renal, with HCC-2998 colon and with DU-145 prostate was greater than 100 µM in each case.
